Earlier results on 3 compounds are cited in patent publication US10196337B2, “Processes for the preparation of hydroxylated cyclohexyl compounds” (priority 2016, dated 2019).

The series relates to A2780 ovarian cancer cell line. The note with it: compounds isolated from bark extract of Pleiogynium timorense, literature ref. 1, read-out: IC50 against the A2780 ovarian cancer cell line.
The term IC50 denotes the concentration that inhibits the measured activity by half. Regarding `CCCCCCCC/C=C\CCCCCCC[C@]1(O)C(=O)C=C[C@H](O)[C@H]1O` [compound 1, pleiogenone A], the IC50 was 800 nM.
On to pleiogenone B [compound 2], for which the IC50 was 700 nM.
Turning to pleiogenone C [compound 3], the IC50 is 800 nM.
